The values that follow come from patent EP3868394A1, “MONO- AND MULTI-TRIAZOLOMINIGASTRINS FOR TARGETING OF CCK2R-POSITIVE NEOPLASMS” (PAUL SCHERRER INSTITUT, priority 2020, dated 2021).

Read-outs that look alike come from different tables or passages of the source. Numbered stars: 1 amine (or outer) side, 2 acyl side, 3 side chain; on linkers, the order of the positions; unused ones are H or OH. Square brackets hold non-standard residues; d marks the D form. Peptide text beside a SMILES is read from it. * marks the point of attachment. DOTA = O=C(O)CN1CCN(CC(=O)O)CCN(CC(=O)*)CCN(CC(=O)O)CC1; X1 = O=C(Cn1cc([C@H](Cc2ccc(O)cc2)N[*:1])nn1)[*:2]; Nle = CCCC[C@H](N)C(=O)O

One series can be described thus: Blood plasma stability. It is filed as in vitro ADME, human. The procedure: Stock solutions were prepared by dissolving the reference substances (Nle^15]-MG11 and PP-F11-N) or the triazolominigastrins (1 mg, 750 nmol) in ammonium acetate buffer (50 µL, 0.5 M, pH 5.5) and addition of water to a final peptide concentration of 250 µM (approx. 0.3 mg/mL). For in vitro experiments, DOTA-functionalized compounds (1 nmol, 4 µL of 250 µM stock solution) were added to a mixture of aq. HCl (22.5 µL, 0.05 M, pH 1.3), ammonium acetate buffer (10 µL, 0.5 M, pH 5.5) and aq. sodium ascorbate (5 µL, 0.5 M). 20-25 MBq of [^177Lu]LuCl3 (ca. 2.5 µL, in 0.04 M HCl, 20-25 MBq/nmol) were added and the mixtures were heated to 95 °C for 20 min in a heating block. After labeling, a 1 µL aliquot of the labeling mixture was added to aq. DTPA (200 µL, 25 µM) for quality control by γ-HPLC.
The ^177Lu-labeled compounds were diluted with 0.9% NaCl to a concentration of 3.75 µM and incubated (375 pmol, 100 µL, 7.5-12 MBq) in human blood plasma (1.5 mL) at 37 °C. At different time points (0.5, 1, 2, 4, 6 and 24 h) aliquots (75 µL) were taken and the proteins were precipitated in CH3CN (100 µL) and centrifuged (2 min, 14680 rpm, rt). The supernatant (75 µL) was diluted with water (75 µL) and analyzed by γ-HPLC. One phase decay nonlinear regression (A = A0 ^∗ e^-kt) was used to calculate the half-lifes (t1/2) of the peptide conjugates with GraphPad Prism (n=2-3).

The next series concerns CCK2R-positive tumors. The following applies: cited from earlier work.
For a further series, the system named is A431-CCK2R cells. Put plainly: Cell internalization experiments with 177Lu-labeled conjugates. It is filed as cell-based, Human. The procedure: Stock solutions were prepared by dissolving the reference substances (Nle^15]-MG11 and PP-[…]) or the triazolominigastrins (1 mg, 750 nmol) in ammonium acetate buffer (50 μL, 0.5 M, pH 5.5) and addition of water to a final peptide concentration of 250 μM (approx. 0.3 mg/mL). For in vitro experiments, DOTA-functionalized compounds (1 nmol, 4 μL of 250 μM stock solution) were added to a mixture of aq. HCl (22.5 μL, 0.05 M, pH 1.3), ammonium acetate buffer (10 μL, 0.5 M, pH 5.5) and aq. sodium ascorbate (5 μL, 0.5 M). 20-25 MBq of [^177Lu]LuCl3 (ca. 2.5 μL, in 0.04 M HCl, 20-25 MBq/nmol) were added and the mixtures were heated to 95 °C for 20 min in a heating block. After labeling, a 1 μL aliquot of the labeling mixture was added to aq. DTPA (200 μL, 25 μM) for quality control by γ-HPLC. Human epidermoid carcinoma cells A431 stably transfected to express the CCK2R (A431-CCK2R cells)[Aloj L., Journal of Nuclear Medicine, 2004, 45, 485-494] were grown in monolayers in NunclonTM Delta treated cell culture flasks in humidified air at 5% CO2 and 37 °C. The cells were maintained in the culture medium DMEM (high glucose (4.5 g/L)) supplemented with 20 mM L-Gln and 10% FCS. The culture was passaged regularly at 80 to 90% confluency using a 0.25% trypsin 0.38‰ EDTA solution. Assays were conducted in the assay medium DMEM (high glucose) containing 0.1% BSA. On the day prior to the experiment A431-CCK2R cells were placed in six-well plates (0.85·10^6 cells/well) in cell culture medium and incubated overnight for attachment. On the day of the experiment, the medium was removed and the cells were washed twice with 1 mL PBS. The plates were put on ice for preparation. 0.9 mL of assay medium was dispensed to all wells except the ones for nonspecific binding. 0.2 pmol of ^177Lu-labeled conjugates (100 μL, 2 nM in assay medium, ca. 4.2 kBq) were dispensed to all wells. For the determination of nonspecific binding, a 5000-fold excess of […] (1 nmol, 100 μL, 10 μM in assay medium) was added to 0.8 mL of assay medium containing the ^177Lu-labeled conjugates. The plates were incubated at 37 °C in 5% CO2 to allow binding and internalization. The process was stopped after 30, 60, 120, and 240 min by collection of the supernatant. The cells were washed twice with PBS (each 0.6 mL). The combined supernatants represent the free, unbound fraction of radioactivity. Membrane-bound activity was determined by incubating the cells with cold saline glycine buffer (0.6 mL, 0.05 M, pH 2.8) twice for 5 min at rt. The internalized fraction was isolated by two cycles of cell lysis with NaOH (each 0.6 mL, 1 M, 10 min, rt). The radioactivity of the fractions was measured by a COBRA-II gamma counter and is represented as percentage of total applied radioactivity dosage (n=3-5 in triplicates).

Where [1] appears, read: compared with PP-F11N, Figure 1.
The mark [2] stands for this setting: compared with [Nle^15]MG11, Figure 1.

Turning to `CCCC[C@H](NC(=O)[C@H](Cc1c[nH]c2ccccc12)NC(=O)Cn1cc([C@H](Cc2ccc(O)cc2)NC(=O)[C@H](C)NC(=O)[C@@H](CCC(=O)O)NC(=O)[C@@H](CCC(=O)O)NC(=O)[C@@H](CCC(=O)O)NC(=O)[C@@H](CCC(=O)O)NC(=O)[C@@H](CCC(=O)O)NC(=O)[C@@H](CCC(=O)O)NC(=O)CN2CCN(CC(=O)O)CCN(CC(=O)O)CCN(CC(=O)O)CC2)nn1)C(=O)N[C@@H](CC(=O)O)C(=O)N[C@@H](Cc1ccccc1)C(N)=O` [NMG 6, DOTA-(DGlu)5-DGlu-Ala-Tyr-Ψ[Tz]-Gly-Trp-Nle-Asp-Phe-NH2], the “stability in plasma over 24 hours” value in “Blood plasma stability” was “high stability”.

Consider `CCCC[C@H](NC(=O)[C@H](Cc1c[nH]c2ccccc12)NC(=O)CNC(=O)[C@H](Cc1ccc(O)cc1)NC(=O)[C@H](C)NC(=O)[C@@H](CCC(=O)O)NC(=O)[C@@H](CCC(=O)O)NC(=O)[C@@H](CCC(=O)O)NC(=O)[C@@H](CCC(=O)O)NC(=O)[C@@H](CCC(=O)O)NC(=O)[C@@H](CCC(=O)O)NC(=O)CN1CCN(CC(=O)O)CCN(CC(=O)O)CCN(CC(=O)O)CC1)C(=O)N[C@@H](CC(=O)O)C(=O)N[C@@H](Cc1ccccc1)C(N)=O` [PP-F11N, reference compound], for which the “stability in plasma over 24 hours” value in the series “Blood plasma stability” (177Lu-labeled, human blood plasma, 37 °C, over 24 hours, Figure 3) was “high stability”. The tumor-to-kidney ratio entry in the series with CCK2R-positive tumors (according to WO 2015/067473 A1) is reported as “excellent”.

Consider `CCCC[C@H](NC(=O)[C@H](Cc1c[nH]c2ccccc12)NC(=O)Cn1cc([C@H](Cc2ccc(O)cc2)NC(=O)[C@H](C)NC(=O)[C@@H](CCC(=O)O)NC(=O)CN2CCN(CC(=O)O)CCN(CC(=O)O)CCN(CC(=O)O)CC2)nn1)C(=O)N[C@@H](CC(=O)O)C(=O)N[C@@H](Cc1ccccc1)C(N)=O` [TZMG 6, DOTA-DGlu-Ala-Tyr-Ψ[Tz]-Gly-Trp-Nle-Asp-Phe-NH2] ({DOTA}-[dE]A[X1]W[Nle]DF-NH2), for which the stability in plasma result in “Blood plasma stability” is “reduced stability”.

As for `CCCC[C@H](NC(=O)[C@H](Cc1c[nH]c2ccccc12)NC(=O)Cn1cc([C@H](Cc2ccc(O)cc2)n2cc([C@H](C)n3cc([C@@H](CCC(=O)O)NC(=O)CN4CCN(CC(=O)O)CCN(CC(=O)O)CCN(CC(=O)O)CC4)nn3)nn2)nn1)C(=O)N[C@@H](CC(=O)O)C(=O)N[C@@H](Cc1ccccc1)C(N)=O` [TZMG 876, DOTA-DGlu-Ψ[Tz]-Ala-Ψ[Tz]-Tyr-Ψ[Tz]-Gly-Trp-Nle-Asp-Phe-NH2], in “Blood plasma stability”, the stability in plasma entry is on record as “significantly higher stability”.

In the case of “DOTA-(DGlu)5-DGlu-Ψ[Tz]-Ala-Tyr-Ψ[Tz]-Gly-Trp-Nle-Asp-Phe-NH2 [NMG 86]”, in the series on A431-CCK2R cells (setting [1]), the “cell internalization after 4 h” value is given as “higher” and the cell internalization kinetics result is “faster”. Moreover, the “stability in plasma over 24 hours” value in “Blood plasma stability” is on record as “high stability”. For “DOTA-DGlu-DGlu-DGlu-DGlu-DGlu-DGlu-Ala-Tyr-Gly-Trp-Met-Asp-Phe-NH2 [PP-F11]”, in the series on CCK2R-positive tumors ([^177Lu]Lu-PP-F11), the “accumulation in the tumor” value was “high favorable accumulation”. Moreover, the “accumulation in the kidneys” value in the series on CCK2R-positive tumors (in vivo) is reported as “low accumulation”. For the compound “DOTA-DGlu-Ψ[Tz]-Ala-Tyr-Ψ[Tz]-Gly-Trp-Nle-Asp-Phe-NH2 [TZMG 86]”, in the series on A431-CCK2R cells (setting [2]), the “cell internalization after 4 h” value is listed as “higher” and the cell internalization kinetics result is on record as “faster”. Besides, the stability in plasma result in the series “Blood plasma stability” was “significantly higher stability”.
